Assay results published in patent US20040093169A1, “Method of designing molecular structure of enzyme inhibitor” (TOYO SUISAN KAISHA, LTD., priority 2000, published 2004).

Experiments:
rat pol. β = rat pol. β (Rattus norvegicus, UniProt P06766); assay: Inhibitory activity on rat pol. β ([3H]-dTTP incorporation, poly(dA)/oligo(dT)12-18); format: biochemical; details: compared among fatty acids
Description: The activity of rat pol. β was measured according to the method described in reference 3 listed below, by using poly(dA)/oligo(dT)12-18 (template DNA) and [^3H]-dTTP (nucleotide) as substrates and measuring radiation of [^3H]-dTTP incorporated in the presence of nervonic acid of different concentrations.
FIG. 5 is a graph showing an inhibition curve. In FIG. 5, the vertical axis represents the activity of rat pol. β and the horizontal axis represents the concentration of nervonic acid.

[1] = biological target: HIV reverse transcriptase (Human immunodeficiency virus type 1 group M subtype B, UniProt P03366); assay: Inhibitory activity on HIV reverse transcriptase; format: biochemical; details: compared with inhibitory activity on rat pol. β
Description: The confirmation of the inhibitory activity of nervonic acid on HIV reverse transcriptase was carried out.
Specifically, the inhibitory activity of nervonic acid on HIV reverse transcriptase was measured according to the method described in reference 8 listed below.

DNA polymerase = details: reported by Ogawa et al., Jpn. J. Cancer Res. 89, 1154-1159, 1998; cited from earlier work

| Structure (SMILES) | inhibition of rat pol. β (rat pol. β) | inhibitory activity on HIV reverse transcriptase (inhibition curve, FIG. 15) [1] | inhibitor on DNA polymerase (DNA polymerase) |
| --- | --- | --- | --- |
| CCCCCCCC/C=C\CCCCCCCCCCCCCC(=O)O [nervonic acid, cis-15-tetracosenoic acid] | one of the fatty acids which most strongly inhibit rat pol. β | substantially equal to the inhibitory activity of nervonic acid on rat pol. β |  |
| C[C@H](CCC(=O)O)[C@H]1CC[C@H]2[C@@H]3CC[C@@H]4C[C@H](O)CC[C@]4(C)[C@H]3CC[C@]12C [lithocholic acid, 3-α-hydroxy-5β-cholanoic acid] |  |  | known as inhibitors on DNA polymerase |
